Measured values from patent US6737383B1, “Herbicidal oxadiazolidines” (priority 1999, dated 2004).

Legend:
Conditions in all cases: 0 to 10 scale where 0 is no effect and 10 is complete control
barnyardgrass = assay: Test A barnyardgrass; format: in vivo, Echinochloa crus-galli
Summary of the method: (§1)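 Ratings came from visual comparison with untreated plants about eleven days after treatment, scored 0 for no effect through 10 for complete control. Both soil-drench preemergence and runoff-spray postemergence applications were made at the same time.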

velvetleaf = assay: Test A velvetleaf; format: in vivo, Abutilon theophrasti
Summary of the method: as §1

crabgrass = assay: Test A crabgrass; format: in vivo, Digitaria spp.
Summary of the method: as §1

morningglory = assay: Test A morningglory; format: in vivo, Ipomoea spp.
Summary of the method: as §1

CC(C)N(C(=O)n1oc(=O)[nH]c1=O)c1ccc(Cl)cc1 [Compound 377]
0: Plant response rating, Barnyardgrass (barnyardgrass; Postemergence, Rate 1000 g/ha) | Plant response rating, Barnyardgrass (barnyardgrass; Pre-emergence, Rate 2000 g/ha) | Plant response rating, Velvetleaf (velvetleaf; Postemergence, Rate 1000 g/ha) | Plant response rating, Velvetleaf (velvetleaf; Pre-emergence, Rate 2000 g/ha) | Plant response rating, Crabgrass (crabgrass; Postemergence, Rate 1000 g/ha) | Plant response rating, Crabgrass (crabgrass; Pre-emergence, Rate 2000 g/ha) | Plant response rating, Morningglory (morningglory; Postemergence, Rate 1000 g/ha) | Plant response rating, Morningglory (morningglory; Pre-emergence, Rate 2000 g/ha)
